Reference: paper PMC9958325 (Nature Communications, 2023)
Where “and” joins values, the source holds several entries; their conditions need not be identical. Identical values can stand only once. Counter-ions that a name gives are not always drawn. Like-named read-outs stand apart in the source and are kept apart here. Marks after values point to notes of the source that are not given here. Peptide text beside a SMILES is read from it. * marks the point of attachment. Cbz = O=C(OCc1ccccc1)*; CH2F = FC*

How the values were obtained:
[1] = tested on: SARS-CoV-2^WK-521; assay: microbe, parasite or virus in culture; format: cell-based; parameters: EC95, individual assays / EC95, Average: unit: µM
[2] = Pharmacokinetic study in ICR mice; details: N = 2 to 3 male or female ICR mice; 5h, TKB125 i.v. 2 mg/kg
[3] = tested on: SARS-CoV-2^WK521 in HeLa-ACE2-TMPRSS2 cells; assay: Antiviral assay, HeLa-ACE2-TMPRSS2 cells, WK521; format: cell-based
[4] = in vitro; details: human, HeLa-ACE2-TMPRSS2 cells
[5] = in vitro; details: African green monkey, VeroE6 cells
[6] = molecular target: T1, human cathepsin L (Homo sapiens, UniProt P07711); assay: Human cathepsin L inhibitor screening assay; format: biochemical; details: triplicate, listed as Cathepsin L inhibitor/FF-FMK
T1 construct: purchased abcam ab197012
T1 sequence (P07711 114-333): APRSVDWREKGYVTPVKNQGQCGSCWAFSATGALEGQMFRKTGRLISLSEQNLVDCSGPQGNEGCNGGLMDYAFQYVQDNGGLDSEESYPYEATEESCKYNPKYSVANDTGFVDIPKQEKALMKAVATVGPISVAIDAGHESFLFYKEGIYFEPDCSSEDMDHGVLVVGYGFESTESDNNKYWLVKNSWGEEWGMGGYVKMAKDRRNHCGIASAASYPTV

[7] = molecular target: SARS-CoV-2 M^pro/3CL^pro (Severe acute respiratory syndrome coronavirus 2, UniProt P0DTD1); format: biochemical; parameters: IC95, individual assays / IC95, Average: unit: µM
[8] = mouse, in vivo
[9] = tested on: VeroE6 cells; assay: Intracellular concentrations of compounds (LC/MS), VeroE6 cells; details: Vero, calculated value per cell count
[10] = tested on: HeLa-ACE2-TMPRSS2 cells; assay: Intracellular concentrations of compounds (LC/MS), HeLa-ACE2-TMPRSS2 cells; details: for intracellular compound, /1x10^6: calculated value per cell count; for intracellular compound, calculated value /20uL: from AUC against pmol standard curve
[11] = read-out: EC50, individual assays
[12] = read-out: SARS-CoV2 RNA VeroE6 cell-based assay EC50
[13] = Severe acute respiratory syndrome coronavirus 2, SARS-CoV-2^WK521, read-out: EC50, HeLa-ACE2-TMPRSS2
[14] = Severe acute respiratory syndrome coronavirus 2, read-out: EC50, HeLa-AEC2-TMPRSS2, individual assays, source data
[15] = Severe acute respiratory syndrome coronavirus 2, source data, read-out: EC50, HeLa-AEC2-TMPRSS2, Average
[16] = read-out: EC50, HeLa-AEC2-TMPRSS2, individual assays, source data
[17] = Severe acute respiratory syndrome coronavirus 2, Vero C1008, read-out: SARS-CoV2 RNA VeroE6 cell-based assay EC50
[18] = FRET, mean ± 1 S.D., read-out: SARS-CoV2 M^pro enzyme assay IC50
[19] = source data, M^pro enzyme assay
[20] = source data, M^pro enzyme assay, read-out: IC50, Average
[21] = Hela ACE2 TMPRSS2, drug 10, duplicates
[22] = Hela ACE2 TMPRSS2, drug 50, duplicates
[23] = Hela ACE2 TMPRSS2, drug 100, duplicates

COc1cccc2[nH]c(C(=O)N[C@@H](CC(C)C)C(=O)N[C@@H](C[C@@H]3CCNC3=O)C(=O)c3nc4ccccc4s3)cc12 [Compound 5h, reference compound]
EC95, Average [1]: 9.4675 | EC95, individual assays [1]: 9.47 and 9.68 and 9.72 and 9 | SARS-CoV2 RNA VeroE6 cell-based assay EC95 [1]: 9.47 ± 0.33 µM | EC50 [1, 11]: 2700 nM and 3200 nM and 2000 nM and 2500 nM | EC50 [1, 12]: 2600 ± 500 nM | T1/2 [2]: 0.27§ h

Cn1cnc(Cn2c(=O)[nH]/c(=N\c3cc4cn(C)nc4cc3Cl)n(Cc3cc(F)c(F)cc3F)c2=O)n1 [Ensitrelvir fumarate]
EC50 [3, 13]: 200 ± 30 nM | EC50 [3, 14]: 211 nM | EC50 [3, 15]: 204 nM | EC50 [3, 16]: 230 nM and 170 nM | EC50 ([1]; Severe acute respiratory syndrome coronavirus 2, Vero C1008, read-out: EC50, Average): 106 nM | EC50 [1, 17]: 110 ± 50 nM | EC50 [1, 11]: 45 nM and 127 nM and 156 nM and 98 nM | CC50 at 3 days [4]: > 100 µM | CC50 at 3 days [5]: > 100 µM

O=C(NC(Cc1ccccc1)C(=O)NC(Cc1ccccc1)C(=O)CF)OCc1ccccc1 (stereo not drawn) [FF-FMK, reference compound] (Cbz-Phe-Phe-CH2F; configuration not given here)
% inhibition against human Cathepsin ([6]; 0.00106 µM): 39.8315% and 40.7898% and 42.7898% | % inhibition against human Cathepsin ([6]; 0.0053 µM): 58.2277% and 58.5989% and 59.5989% | % inhibition against human Cathepsin ([6]; 0.0266 µM): 77.0946% and 80.3037% and 81.3037% | % inhibition against human Cathepsin ([6]; 0.6 µM): 98.8112% and 98.8499% | % inhibition against human Cathepsin ([6]; 3.3 µM): 99.7789% and 99.782% | % inhibition against human Cathepsin ([6]; 16.6 µM): 99.9553% and 99.0234% and 100.023%

CC(C)C(=O)OC[C@H]1O[C@@H](n2ccc(NO)nc2=O)[C@H](O)[C@@H]1O [Molnupiravir]
EC50 [3, 13]: 320 ± 70 nM | EC50 [3, 14]: 270 nM | EC50 [3, 15]: 323 nM | EC50 [3, 16]: 300 nM and 400 nM | EC50 ([1]; Severe acute respiratory syndrome coronavirus 2, Vero C1008, read-out: EC50, individual assays): 270 nM | EC50 [1, 17]: 350 ± 60 nM | EC50 [1, 11]: 330 nM and 380 nM and 420 nM | CC50 at 3 days [4]: > 100 µM | CC50 at 3 days [5]: > 100 µM

COc1ccc(F)c2[nH]c(C(=O)N[C@@H](CC(C)C)C(=O)N[C@@H](C[C@@H]3CCNC3=O)C(=O)c3nc4ccccc4s3)cc12 [TKB125]
SARS-CoV2 M^pro enzyme assay IC95 ([7]; FRET, mean ± 1 S.D.): 1.02 ± 0.40 µM | IC50 [7, 18]: 34 ± 6 nM | IC95, Average [7, 19]: 1.022 | IC95, individual assays [7, 19]: 0.8844 and 1.476 and 0.7048 | IC50 [7, 20]: 34 nM | IC50 ([7]; source data, M^pro enzyme assay, read-out: IC50, individual assays): 28.2 nM and 39.6 nM and 34.1 nM | EC95, Average [1]: 8.3875 | EC95, individual assays [1]: 8.28 and 8.91 and 7.98 and 8.38 | SARS-CoV2 RNA VeroE6 cell-based assay EC95 [1]: 8.39 ± 0.39 µM | EC50 ([1]; read-out: EC50, Average): 1820 nM | EC50 [1, 11]: 1700 nM and 1510 nM and 3160 nM and 900 nM | EC50 [1, 12]: 1820 ± 960 nM | T1/2 [2]: 0.76 § h

COc1ccc(F)c2[nH]c(C(=O)N[C@@H](CC(C)C)C(=O)N[C@@H](C[C@@H]3CCNC3=O)C(=O)c3nc4c(F)cccc4s3)cc12 [TKB198]
SARS-CoV2 M^pro enzyme assay IC95 ([7]; FRET, mean ± 1 S.D.): 0.75 ± 0.27 µM | IC50 [7, 18]: 23 ± 13 nM | IC95, Average [7, 19]: 0.7533 | IC95, individual assays ([7]; source data, M^pro enzyme assay, listed as TKB0198): 1.0700 and 0.6000 and 0.5900 | IC50 ([7]; source data, M^pro enzyme assay, listed as TKB0198, read-out: IC50, individual assays): 36 nM and 10.1 nM | IC50 [7, 20]: 23 nM | Cmax [8]: 85 ng/mL | Oral F ([8]; po): 1.98§ % | EC95, Average [1]: 0.834 | EC95, individual assays [1]: 0.856 and 0.86 and 0.8 and 0.82 | Improvement of EC50 and EC95 values relative to TKB125 [1]: about 10 fold | SARS-CoV2 RNA VeroE6 cell-based assay EC95 [1]: 0.83 ± 0.03 µM | EC50 ([1]; read-out: EC50, Average): 272 nM | EC50 [1, 11]: 130 nM and 300 nM and 400 nM and 260 nM | EC50 [1, 12]: 270 ± 110 nM | T1/2 [2]: 0.83 § h

CC(C)(C)C(NC(=O)C(F)(F)F)C(=O)N1CC2C(C1C(=O)NC(CC1CCNC1=O)C(=O)c1nc3c(F)cccc3s1)C2(C)C (stereo not shown) [TKB0245A]
intracellular compound, /1x10^6 ([9]; drug 10, duplicates): 0.09213 /1x10^6 and 0.09745 /1x10^6 | intracellular compound, /1x10^6 ([9]; drug 100, duplicates): 0.9321 /1x10^6 and 0.7861 /1x10^6 | intracellular compound, pmol(total) [10, 21]: 0.636 pmol and 0.5701 pmol | intracellular compound, /1x10^6 [10, 21]: 0.2544 /1x10^6 and 0.228 /1x10^6 | intracellular compound, calculated value /20uL [10, 21]: 0.59 /20uL and 0.50 /20uL | intracellular compound, pmol(total) [10, 22]: 4.585 pmol and 3.749 pmol | intracellular compound, /1x10^6 [10, 22]: 1.834 /1x10^6 and 1.4997 /1x10^6 | intracellular compound, calculated value /20uL [10, 22]: 4.77 /20uL and 3.30 /20uL | intracellular compound, pmol(total) [10, 23]: 8.312 pmol and 9.388 pmol | intracellular compound, /1x10^6 [10, 23]: 3.325 /1x10^6 and 3.755 /1x10^6 | intracellular compound, calculated value /20uL [10, 23]: 6.65 /20uL and 9.39 /20uL
